ChEMBL document CHEMBL1124371, “A novel solution-stable, water-soluble prodrug type for drugs containing a hydroxyl or an NH-acidic group” (J Med Chem, 1989)

Organism: Homo sapiens
Assay: Ester prodrugs: T1/2 in human plasma
Type: ADME

| SMILES | T1/2 (human, in vitro) | T1/2 |
| --- | --- | --- |
| C[C@H]1CC2C(C(O)CC3(C)C2CC[C@]3(O)C(=O)COC(=O)c2cccc(CN(C)CCN(C)C)c2)C2(C)C=CC(=O)C=C12 (stereo not given in full) | 18 min | – |
| CCN(CC)CCN(CC)Cc1cccc(C(=O)OCC(=O)[C@@]2(O)CCC3C4CCC5=CC(=O)CCC5(C)C4C(O)CC32C)c1 (stereo not given in full) | 8 min | – |
| CCN(CC)Cc1cccc(C(=O)OCC(=O)[C@@]2(O)CCC3C4CCC5=CC(=O)CCC5(C)C4C(O)CC32C)c1 (stereo not given in full) | 34 min | – |
| CN1CCN(Cc2cccc(C(=O)OCC(=O)[C@@]3(O)CCC4C5CCC6=CC(=O)CCC6(C)C5C(O)CC43C)c2)CC1 (stereo not given in full) | 15 min | – |
| Cc1ncc([N+](=O)[O-])n1CCOC(=O)c1cccc(CN2CCN(C)CC2)c1 | 0.6 min | – |
| CN1CCN(Cc2cccc(C(=O)OCC(NC(=O)C(Cl)Cl)C(O)c3ccc([N+](=O)[O-])cc3)c2)CC1 (stereo not given) | 5 min | – |
| CC(=O)Nc1ccc(OC(=O)c2cccc(CN3CCOCC3)c2)cc1 | 56 min | – |
| Cc1ncc([N+](=O)[O-])n1CCOC(=O)c1cccc(CN2CCOCC2)c1 | 5 min | – |
| CCN(CC)CCN(CC)Cc1cccc(C(=O)Oc2ccc(NC(C)=O)cc2)c1 | 15 min | – |
| CCN(CC)Cc1cccc(C(=O)OCC(NC(=O)C(Cl)Cl)C(O)c2ccc([N+](=O)[O-])cc2)c1 (stereo not given) | 8 min | – |
| C[C@H]1CC2C(C(O)CC3(C)C2CC[C@]3(O)C(=O)COC(=O)c2cccc(CN3CCN(C)CC3)c2)C2(C)C=CC(=O)C=C12 (stereo not given in full) | 29 min | – |
| CNCc1cccc(C(=O)OCC(=O)[C@@]2(O)CCC3C4CCC5=CC(=O)CCC5(C)C4C(O)CC32C)c1 (stereo not given in full) | 25 min | – |
| CN1CCN(Cc2cccc(C(=O)OCC(=O)[C@@]3(O)CCC4C5CCC6=CC(=O)C=CC6(C)C5C(O)CC43C)c2)CC1 (stereo not given in full) | 18 min | – |
| CN1CCN(Cc2ccc(C(=O)OCC(=O)[C@@]3(O)CCC4C5CCC6=CC(=O)CCC6(C)C5C(O)CC43C)cc2)CC1 (stereo not given in full) | 147 min | – |
| CC12CCC(=O)C=C1CCC1C2C(O)CC2(C)C1CC[C@]2(O)C(=O)COC(=O)c1cccc(CN2CCOCC2)c1 (stereo not given in full) | 62 min | – |
| CC12CCC(=O)C=C1CCC1C2C(O)CC2(C)C1CC[C@]2(O)C(=O)COC(=O)c1ccc(CN2CCOCC2)cc1 (stereo not given in full) | 92 min | – |
| CCCNCc1cccc(C(=O)OCC(=O)[C@@]2(O)CCC3C4CCC5=CC(=O)CCC5(C)C4C(O)CC32C)c1 (stereo not given in full) | 38 min | – |
| CC(=O)Nc1ccc(OC(=O)c2cccc(CN3CCN(C)CC3)c2)cc1 | 27 min | – |
| CCN(CC)CCN(CC)Cc1cccc(C(=O)OCC(NC(=O)C(Cl)Cl)C(O)c2ccc([N+](=O)[O-])cc2)c1 (stereo not given) | 0.9 min | – |
| CN1CCN(Cc2cccc(C(=O)OCN3C(=O)NC(c4ccccc4)(c4ccccc4)C3=O)c2)CC1 | 7 min | – |
| O=C(OCC(NC(=O)C(Cl)Cl)C(O)c1ccc([N+](=O)[O-])cc1)c1cccc(CN2CCOCC2)c1 (stereo not given) | 55 min | – |

More lines, now with the values ahead:

| T1/2 (human, in vitro) | T1/2 | SMILES |
| --- | --- | --- |
| 4.7 min | – | Cc1ncc([N+](=O)[O-])n1CCOC(=O)c1ccc(CN(C)C)cc1 |
| 107 min | – | CCN(CC)Cc1ccc(C(=O)OCC(=O)[C@@]2(O)CCC3C4CCC5=CC(=O)CCC5(C)C4C(O)CC32C)cc1 (stereo not given in full) |
| 20 min | – | CCN(CC)Cc1cccc(C(=O)OCN2C(=O)NC(c3ccccc3)(c3ccccc3)C2=O)c1 |
| 0.4 min | – | CCN(CC)Cc1cccc(C(=O)OCn2cnc3c2c(=O)n(C)c(=O)n3C)c1 |
| 8.5 min | – | O=C(OCn1ncc2c(=O)[nH]cnc21)c1cccc(CN2CCOCC2)c1 |
| 0.4 min | – | Cc1ncc([N+](=O)[O-])n1CCOC(=O)c1ccc(CN2CCOCC2)cc1 |
| 3.7 min | – | Nc1nc(O)c2ncn(COCCOC(=O)c3ccc(CN4CCOCC4)cc3)c2n1 |
| 0.5 min | – | CN1CCN(Cc2cccc(C(=O)OCn3ncc4c(=O)[nH]cnc43)c2)CC1 |
| 11 min | – | CN1CCN(Cc2ccc(C(=O)OCn3ncc4c(=O)[nH]cnc43)cc2)CC1 |
| 2.8 min | – | Cn1c(=O)c2c(ncn2COC(=O)c2cccc(CN3CCOCC3)c2)n(C)c1=O |
| 87 min | – | CC(=O)Nc1ccc(OC(=O)c2ccc(CN(C)C)cc2)cc1 |
| 9.4 min | – | CN(C)Cc1ccc(C(=O)OCn2ncc3c(=O)[nH]cnc32)cc1 |
| 3.6 min | – | O=C(OCn1ncc2c(=O)[nH]cnc21)c1cccc(Cn2ccnc2)c1 |
| 0.4 min | – | CN1CCN(Cc2cccc(C(=O)OCn3cnc4c3c(=O)n(C)c(=O)n4C)c2)CC1 |
| 0.9 min | – | Cn1c(=O)c2c(ncn2COC(=O)c2cccc(Cn3ccnc3)c2)n(C)c1=O |
| – | 28 min | CCN(CC)Cc1cccc(C(=O)OCn2c(=O)oc3ccc(Cl)cc32)c1 |
| 2.4 min | – | Cc1ncc([N+](=O)[O-])n1CCOC(=O)c1ccc(CN2CCN(C)CC2)cc1 |
| 1.9 min | – | O=C(OCn1ncc2c(=O)[nH]cnc21)c1ccc(CN2CCOCC2)cc1 |
| 487 min | – | CC(=O)Nc1ccc(OC(=O)c2ccc(CN3CCN(C)CC3)cc2)cc1 |
